These results are taken from patent US10280145B2 (Toray Industries, Inc., priority 2015, dated 2019).

The target in the assay is T1, intracellular domain of DDR1 (Homo sapiens, UniProt Q08345).
T1 construct: the intracellular domain of DDR1 (in a final concentration of 5 ng/μL) (Carna Biosciences, Inc.); purchased Carna Biosciences, Inc
Description: Evaluation of DDR1 inhibition activity with HTRF KinEASE-TK kit. The format is biochemical. Conditions: DDR1 intracellular domain 5 ng/μL, ATP 25 μm/L, TK Substrate-biotin 1000 nmol/L, room temperature, one hour. The method, then:
The DDR1 inhibition activity in the compounds of Examples 1 to 80 was evaluated with HTRF® KinEASE-TK kit (Cisbio Bioassays).
Each test substance was dissolved in dimethyl sulfoxide and then used for the evaluation as described below. Moreover, each of test substances and reagents was diluted in the kinase buffer (Cisbio Bioassays) prepared by adding thereto MgCl2, MnCl2, DTT, and the Supplemental Enzyme buffer (Cisbio Bioassays) to concentrations of 5 mmol/L, 0.5 mmol/L, 0.25 mmol/L, and 50 nmol/L, respectively, and then used. Each test substance (in DMSO in a final concentration of 1%), the intracellular domain of DDR1 (in a final concentration of 5 ng/μL) (Carna Biosciences, Inc.), the phosphate donor ATP (in final concentration of 25 μm/L) (Sigma), and the substrate TK Substrate-biotin (in a final concentration of 1000 nmol/L) (Cisbio Bioassays) were added to a 384-well black plate (Corning) and allowed to react at room temperature for one hour. After completion of the reaction, the TK Antibody-Cryptate (Cisbio Bioassays) and the Streptavidin-XL665 (Cisbio Bioassays) were added thereto and allowed to react at room temperature for one hour. In addition, the plate was provided with a well to which a test substance was not added, and with a well to which a test substance and the intracellular domain of DDR1 were […].
The fluorescence intensity in each well was measured using a multi-label counter (Envision, PerkinElmer; excitation wavelength: 320 nm, measurement wavelength: 665 nm and 620 nm) to calculate a ratio (the fluorescence intensity at 665 nm/the fluorescence intensity at 620 nm). The inhibition rate (%) of a test substance at each concentration was calculated based on the formula below: Inhibition rate (%)=([the ratio obtained from the well containing no test substance]−[the ratio from a well containing a test substance])/([the ratio obtained from the well containing no test substance]−[the ratio obtained from the well containing no intracellular domain of DDR1 and no test substance])×100.
The calculated inhibition rates were fitted to a sigmoidal dose-response curve by regression analysis using the Prism 5.04 (GraphPad Software, Inc.) to calculate the IC50 value of the test substance.
On the technique in general: TR-FRET usually uses a lanthanide donor and a delayed reading to cut background.

T1 sequence (Q08345 439-913 limits assumed): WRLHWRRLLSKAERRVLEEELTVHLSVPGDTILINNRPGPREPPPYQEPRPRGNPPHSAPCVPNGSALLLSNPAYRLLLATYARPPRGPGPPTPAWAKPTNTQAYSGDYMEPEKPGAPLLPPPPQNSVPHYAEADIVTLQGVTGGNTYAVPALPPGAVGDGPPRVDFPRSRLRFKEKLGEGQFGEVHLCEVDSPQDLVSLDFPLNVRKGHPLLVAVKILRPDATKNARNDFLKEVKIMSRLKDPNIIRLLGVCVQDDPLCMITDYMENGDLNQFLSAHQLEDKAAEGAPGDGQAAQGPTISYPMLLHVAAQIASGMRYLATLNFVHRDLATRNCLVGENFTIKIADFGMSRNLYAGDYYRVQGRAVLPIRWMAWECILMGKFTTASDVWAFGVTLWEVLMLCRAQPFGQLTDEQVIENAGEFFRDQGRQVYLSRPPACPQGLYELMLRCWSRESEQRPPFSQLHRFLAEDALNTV

What is called IC50 is the concentration that inhibits the measured activity by half. `CCOc1ccc(C(F)(F)F)cc1NC(=O)N[C@H]1CC[C@H](Oc2ccnc(N3CCOCC3)n2)CC1` [Example 46, 1-(2-ethoxy-5-(trifluoromethyl)phenyl)-3-(trans-4-((2-morpholinopyrimidin-4-yl)oxy)cyclohexyl)urea] yielded a concentration for half-maximal inhibition (IC50) of 531 nM.
In the case of `O=C(Nc1cc(C(F)(F)F)ccc1OC1COC1)N[C@H]1CC[C@H](Oc2ncccn2)CC1` [Example 13, 1-(2-(oxetan-3-yloxy)-5-(trifluoromethyl)phenyl)-3-(trans-4-(pyrimidin-2-yloxy)cyclohexyl)urea] it was 57.6 nM; in that of `COc1ccc(OC(F)(F)F)cc1NC(=O)N[C@H]1CC[C@H](Oc2cccnc2)CC1` [Example 18, 1-(2-methoxy-5-(trifluoromethoxy)phenyl)-3-(trans-4-(pyridin-3-yloxy)cyclohexyl)urea], 162 nM.
`COc1ccc(C(F)(F)F)cc1NC(=O)N[C@H]1CC[C@H](Oc2ncccn2)CC1` [Example 11, 1-(2-methoxy-5-(trifluoromethyl)phenyl)-3-(trans-4-(pyrimidin-2-yloxy)cyclohexyl)urea] had an IC50 of 384 nM. Compared with the last compound, the IC50 is about 2.4-fold higher.
In turn, `CNc1nccc(O[C@H]2CC[C@H](NC(=O)Nc3cc(OC(F)(F)F)ccc3OC)CC2)n1` [Example 3, 1-(2-methoxy-5-(trifluoromethoxy)phenyl)-3-(trans-4-((2-(methylamino)pyrimidin-4-yl)oxy)cyclohexyl)urea] displayed an IC50 of 141 nM. This IC50 is about 2.7-fold lower than that of the compound before.
Regarding `CNc1cc(O[C@H]2CC[C@H](NC(=O)Nc3cc(C(F)(F)F)cc(CO)c3OC)CC2)ncn1` [Example 71, 1-(3-(hydroxymethyl)-2-methoxy-5-(trifluoromethyl)phenyl)-3-(trans-4-((6-(methylamino)pyrimidin-4-yl)oxy)cyclohexyl)urea], the IC50 was 10.8 nM. This IC50 is about 13-fold lower than that of the compound before.
In turn, `O=C(Nc1cccc(C(F)(F)F)c1)N[C@H]1CC[C@H](OCc2ccncc2)CC1` [Example 22, 1-(trans-4-(pyridin-4-ylmethoxy)cyclohexyl)-3-(3-(trifluoromethyl)phenyl)urea] had a half-maximal inhibitory concentration (IC50) of 234 nM.
For `CC(=O)N1CCC(Oc2ccc(C(F)(F)F)cc2NC(=O)N[C@H]2CC[C@H](OCc3ccncc3)CC2)CC1` [Example 34, 1-(2-((1-acetylpiperidin-4-yl)oxy)-5-(trifluoromethyl)phenyl)-3-(trans-4-(pyridin-4-ylmethoxy)cyclohexyl)urea] the value was 51 nM; for `COc1ccc(S(F)(F)(F)(F)F)cc1NC(=O)N[C@H]1CC[C@H](Oc2ncccn2)CC1` [Example 10, 1-(2-methoxy-5-(pentafluorosulfanyl)phenyl)-3-(trans-4-(pyrimidin-2-yloxy)cyclohexyl)urea], 167 nM.
In the case of `COc1ccc(S(F)(F)(F)(F)F)cc1NC(=O)N[C@H]1CC[C@H](Oc2ccnc(N3CCOCC3)n2)CC1` [Example 4, 1-(2-methoxy-5-(pentafluorosulfanyl)phenyl)-3-(trans-4-((2-morpholinopyrimidin-4-yl)oxy)cyclohexyl)urea] it was 427 nM; in that of `O=C(Nc1cc(C(F)(F)F)ccc1F)N[C@H]1CC[C@H](OCc2ccncc2)CC1` [Example 27, 1-(2-fluoro-5-(trifluoromethyl)phenyl)-3-(trans-4-(pyridin-4-ylmethoxy)cyclohexyl)urea], 258 nM.
For `COc1c(CO)cc(C(F)(F)F)cc1NC(=O)N[C@H]1CC[C@H](Oc2ccnc(NCCO)n2)CC1` [Example 61, 1-(trans-4-((2-((2-hydroxyethyl)amino)pyrimidin-4-yl)oxy)cyclohexyl)-3-(3-(hydroxymethyl)-2-methoxy-5-(trifluoromethyl)phenyl)urea] the value was 57.9 nM.
Compound `COc1ccc(OC(F)(F)F)cc1NC(=O)N[C@H]1CC[C@H](Oc2ccnc(NCCO)n2)CC1` [Example 62, 1-(trans-4-((2-((2-hydroxyethyl)amino)pyrimidin-4-yl)oxy)cyclohexyl)-3-(2-methoxy-5-(trifluoromethoxy)phenyl)urea] gave an IC50 of 138 nM.
In the case of `O=C(Nc1cc(CO)cc(C(F)(F)F)c1)N[C@H]1CC[C@H](OCc2ccncc2)CC1` [Example 20, 1-(3-(hydroxymethyl)-5-(trifluoromethyl)phenyl)-3-(trans-4-(pyridin-4-ylmethoxy)cyclohexyl)urea], the IC50 was determined as 114 nM.
`O=C(Nc1cc(OC(F)(F)F)ccc1OC1COC1)N[C@H]1CC[C@H](Oc2ccnc(N3CCOCC3)n2)CC1` [Example 44, 1-(trans-4-((2-morpholinopyrimidin-4-yl)oxy)cyclohexyl)-3-(2-(oxetan-3-yloxy)-5-(trifluoromethoxy)phenyl)urea] registered an IC50 of 128 nM.
For `CNc1cc(O[C@H]2CC[C@H](NC(=O)Nc3cc(C(F)(F)F)ccc3OC3CNC3)CC2)ncn1` [Example 42] the value was 27.2 nM; for `Cc1ccc(C(F)(F)F)cc1NC(=O)N[C@H]1CC[C@H](OCc2ccncc2)CC1` [Example 25, 1-(2-methyl-5-(trifluoromethyl)phenyl)-3-(trans-4-(pyridin-4-ylmethoxy)cyclohexyl)urea], 421 nM.
For `O=C(Nc1cc(C(F)(F)F)ccc1Cl)N[C@H]1CC[C@H](OCc2ccncc2)CC1` [Example 29, 1-(2-chloro-5-(trifluoromethyl)phenyl)-3-(trans-4-(pyridin-4-ylmethoxy)cyclohexyl)urea] the value was 133 nM.
`COc1ccc(C(F)(F)F)cc1NC(=O)N[C@H]1CC[C@H](Oc2nccc(-c3cccnc3)n2)CC1` [Example 40, 1-(2-methoxy-5-(trifluoromethyl)phenyl)-3-(trans-4-((4-(pyridin-3-yl)pyrimidin-2-yl)oxy)cyclohexyl)urea] gave an IC50 of 98 nM.
For `O=C(Nc1cc(C(F)(F)F)ccc1OC1COC1)N[C@H]1CC[C@H](Oc2ccnc(-c3ccncc3)n2)CC1` [Example 47, 1-(2-(oxetan-3-yloxy)-5-(trifluoromethyl)phenyl)-3-(trans-4-((2-(pyridin-4-yl)pyrimidin-4-yl)oxy)cyclohexyl)urea] the value was 56.6 nM.
`COc1ccc(C(F)(F)F)cc1NC(=O)N[C@H]1CC[C@H](COCc2ccncc2)CC1` [Example 75, 1-(2-methoxy-5-(trifluoromethyl)phenyl)-3-(trans-4-((pyridin-4-ylmethoxy)methyl)cyclohexyl)urea] displayed a concentration for half-maximal inhibition (IC50) of 20 nM.
In the case of `COc1ccc(C(F)(F)F)cc1NC(=O)N[C@H]1CC[C@H](OCc2cccnc2)CC1` [Example 69, 1-(2-methoxy-5-(trifluoromethyl)phenyl)-3-(trans-4-(pyridin-3-ylmethoxy)cyclohexyl)urea], inhibition was half-maximal at 17.2 nM (IC50).
For `O=C(Nc1cc(C(F)(F)F)ccc1OC1COC1)N[C@H]1CC[C@H](Oc2ccnc(NCCO)n2)CC1` [Example 63, 1-(trans-4-((2-((2-hydroxyethyl)amino)pyrimidin-4-yl)oxy)cyclohexyl)-3-(2-(oxetan-3-yloxy)-5-(trifluoromethyl)phenyl)urea], the midpoint of inhibition, the IC50, lay at 46.7 nM.
In turn, “1-(2-(oxetan-3-yloxy)-5-(trifluoromethoxy)phenyl)-3-(trans-4-(pyridin-4-ylmethoxy)cyclohexyl)urea [Example 30]” showed an IC50 of 50.4 nM.
Compound `O=C(Nc1cc(C(F)(F)F)ccc1O[C@H]1CCNC1)N[C@H]1CC[C@H](OCc2ccncc2)CC1` [Example 36, 1-(trans-4-(pyridin-4-ylmethoxy)cyclohexyl)-3-(2-((S)-pyrrolidin-3-yloxy)-5-(trifluoromethyl)phenyl)urea] displayed an IC50 of 140 nM.
Compound `O=C1CN(c2ccc(C(F)(F)F)cc2NC(=O)N[C@H]2CC[C@H](Oc3ncccn3)CC2)CCN1` [Example 15, 1-(2-(3-oxopiperazin-1-yl)-5-(trifluoromethyl)phenyl)-3-(trans-4-(pyrimidin-2-yloxy)cyclohexyl)urea] yielded a half-inhibitory concentration (IC50) of 72.4 nM.
In the case of `COc1c(CO)cc(C(F)(F)F)cc1NC(=O)N[C@H]1CC[C@H](Oc2ccc(-c3ccccc3)nn2)CC1` [Example 17, 1-(3-(hydroxymethyl)-2-methoxy-5-(trifluoromethyl)phenyl)-3-(4-((6-phenylpyridazin-3-yl)oxy)cyclohexyl)urea] it was 189 nM; in that of `CNc1nccc(O[C@H]2CC[C@H](NC(=O)Nc3cc(OC(F)(F)F)cc(CO)c3OC)CC2)n1` [Example 80, 1-(3-(hydroxymethyl)-2-methoxy-5-(trifluoromethoxy)phenyl)-3-(trans-4-((2-(methylamino)pyrimidin-4-yl)oxy)cyclohexyl)urea], 24.9 nM; in that of `COc1ccc(OC(F)(F)F)cc1NC(=O)N[C@H]1CC[C@H](Oc2ccc(-c3ccccc3)nn2)CC1` [Example 16], 963 nM.
In the case of `COc1ccc(OC(F)(F)F)cc1NC(=O)N[C@H]1CC[C@H](COCc2cccnc2)CC1` [Example 72, 1-(2-methoxy-5-(trifluoromethoxy)phenyl)-3-(trans-4-((pyridin-3-ylmethoxy)methyl)cyclohexyl)urea] it was 82.2 nM.
